Assays:
Type in all cases: in vivo
[1] = molecular target: NAd (Nor adrénaline) uptake (Rattus norvegicus, UniProt Q63380); assay: Uptake "ex vivo" of NAd; settings: dose not given
Excerpt: (§1) Activité sur les tests d'inhibition ou de recapture des principaux médiateurs adrénergiques.

5-HT (Sérotonine) uptake = 5-HT (Sérotonine) uptake (Rattus norvegicus, UniProt P31652); assay: Uptake "ex vivo" of 5-HT; settings: dose not given, N.S. = not significant
Excerpt: as §1
(§2) Les résultats obtenus en comparaison avec ceux des antidépresseurs classiques sont rassemblés dans le tableau II: […]

DA (Dopamine) uptake = DA (Dopamine) uptake (Rattus norvegicus, UniProt P23977); assay: Uptake "ex vivo" of DA; settings: dose not given
Excerpt: as §1, §2

CN(C)CC(Oc1ccccc1)Oc1ccccc1 [MEDIFOXAMINE]
inactif: UPTAKE "EX VIVO" % d'inhibition NAd [1] | UPTAKE "EX VIVO" % d'inhibition 5-HT (5-HT (Sérotonine) uptake) | UPTAKE "EX VIVO" % d'inhibition DA (DA (Dopamine) uptake)

Source: patent EP0226475A1, “Diphenoxyethyl amine derivatives, process for their preparation and pharmaceutical compositions containing them” (Albert ROLLAND S.A. Société dite, priority 1985, dated 1987)
